Experimental data published in patent US20260053773A1, “PHARMACEUTICAL COMPOSITION AND USE THEREOF” (AUHUI TONGOO PHARMACEUTICAL TECHNOLOGY CO., LTD., priority 2022, published 2026).
Values joined by “and” are separate entries in the source; they are usually repeats but may differ in a detail not shown here. Identical values can stand only once. Like-named read-outs stand apart in the source and are kept apart here.

Tests used:
[1] = Inhibition of COM crystal growth in three growth directions, inhibitors alone and in combination pairs; settings: for concentration of the single inhibitor achieving 10% inhibition of crystal growth / concentration of the single inhibitor achieving 30% inhibition of crystal growth / concentration of the single inhibitor achieving 70% inhibition of crystal growth / IC50: inhibitor alone; for IC50: read-out: concentration of the single inhibitor achieving 50% inhibition of crystal growth
Description: Different concentrations of citric acid (CA) and ellagic acid (EA) were added to 25 ml of deionized water, the supersaturation of the solution was controlled at S=2.4, and the growth process of the crystal was monitored.
The hollow symbols in the figure represent the concentration required for a single inhibitor to achieve a certain effect, and the same solid symbols represent the concentration required for a combination of the inhibitors to achieve the same effect.
Different concentrations of citric acid (CA) and gallic acid (GaA) were added to 25 ml of deionized water, and the growth process of the crystal was monitored.
Different concentrations of citric acid (CA) and pyrogallol (PGA) were added to 25 ml of deionized water, and the growth process of the crystal was monitored.
Different concentrations of citric acid (CA) and protocatechuic acid (PrA) were added to 25 ml of deionized water, and the growth process of the crystal was monitored.
Comparative Example 1 differed from Example 1 merely in that ellagic acid was replaced with albumin, and the other preparation methods were the same as those in Example 1.
Comparative Example 2 differed from Example 1 merely in that ellagic acid was replaced with o-hydroxybenzoic acid, and the other preparation methods were the same as those in Example 1.
Different concentrations of hydroxycitric acid (HCA) and ellagic acid (EA) were added to 25 ml of deionized water, supersaturation of the solution was controlled at S=2.4, and the growth process of the crystal was monitored.
Different concentrations of hydroxycitric acid (HCA) and gallic acid (GaA) were added to 25 ml of deionized water, and the growth process of the crystal was monitored.
Different concentrations of potassium citrate (KCA) and ellagic acid (EA) were added to 25 ml of deionized water, the supersaturation of the solution was controlled at S=2.4, and the growth process of the crystal was monitored.
Different concentrations of potassium citrate (KCA) and gallic acid (GaA) were added to 25 ml of deionized water, and the growth process of the crystal was monitored.

[2] = tested on: human proximal tubule cells (HK-2); test: Cell death/survival of HK-2 cells exposed to COM crystals; type: cell-based; settings: for synergistic enhancement order in improving cell activity: polyphenol (20 μM GaA, 20 μM EA, 40 μM PGA, 200 μM PrA) combined with citric acid 200 μM
Description: Studies have shown that reducing calcium oxalate crystallization, crystal-cell interactions, and cellular damage can prevent stone formation to some extent. On this basis, the present example further verified the combined effect of the pharmaceutical composition of citric acid (200 μM) and polyphenol molecules (20 μM GaA, 20 μM EA, 40 μM PGA, 200 µM PrA) in reducing cellular damage and crystal adhesion.
In order to explore the combined effects of the pharmaceutical composition on reducing crystal toxicity to cells, an in vitro model of direct exposure to COM crystals was selected in the present example to detect short-term cellular damage. In a culture medium environment with or without inhibitors, mature human proximal tubule cells (HK-2) were exposed to COM crystal suspension medium for the indicated times. […] However, in the presence of CA, the amount of cell death was reduced by 50% (FIG. 6).

[3] = tested on: human proximal tubule cells (HK-2); test: Lactate dehydrogenase (LDH) release from HK-2 cells exposed to COM crystals; type: cell-based; settings: 200 μM CA, 20 μM GaA
Excerpt: (§1) Studies have shown that reducing calcium oxalate crystallization, crystal-cell interactions, and cellular damage can prevent stone formation to some extent.
Lactate dehydrogenase (LDH) is a cytoplasmic enzyme released into the extracellular space when the cell membrane ruptures, so the amount of LDH released can be used as a sign of cell membrane integrity.

HK-2 cells = test: Adhesion of COM crystals to HK-2 cells in vitro; type: cell-based; settings: Homo sapiens, 200 μM CA alone, compared with the blank group without inhibitor, read-out: inhibitory effect on COM crystal adhesion
Excerpt: as §1

[4] = related studies; cited from earlier work

Compound: O=C(O)CC(O)(CC(=O)O)C(=O)O [CA, citric acid]
- concentration of the single inhibitor achieving 10% inhibition of crystal growth ([1]; [001] direction): 0.0108 mM
- concentration of the single inhibitor achieving 30% inhibition of crystal growth ([1]; [001] direction): 0.0369 mM
- concentration of the single inhibitor achieving 70% inhibition of crystal growth ([1]; [001] direction): 0.1254 mM
- IC50 ([1]; [001] direction): 71 µM
- concentration of the single inhibitor achieving 10% inhibition of crystal growth ([1]; [021] direction): 0.0121 mM
- concentration of the single inhibitor achieving 30% inhibition of crystal growth ([1]; [021] direction): 0.0409 mM
- concentration of the single inhibitor achieving 70% inhibition of crystal growth ([1]; [021] direction): 0.1380 mM
- IC50 ([1]; [021] direction): 79.5 µM
- concentration of the single inhibitor achieving 10% inhibition of crystal growth ([1]; [121] direction): 0.0135 mM
- concentration of the single inhibitor achieving 30% inhibition of crystal growth ([1]; [121] direction): 0.0458 mM
- concentration of the single inhibitor achieving 70% inhibition of crystal growth ([1]; [121] direction): 0.1550 mM
- IC50 ([1]; [121] direction): 89 µM
- reduction of the amount of cell death ([2]; HK-2 cells exposed to COM crystals 24 hours, CA 200 μM): 50%
- LDH release compared with the control group [3]: 195.17%
- inhibition at 200 µM (HK-2 cells): 30%
- inhibitory effect on calcium oxalate crystallization [4]: 60%

Compound: O=c1oc2c(O)c(O)cc3c(=O)oc4c(O)c(O)cc1c4c23 [EA, ellagic acid]
- concentration of the single inhibitor achieving 10% inhibition of crystal growth ([1]; [001] direction): 8.4e-06 mM and 1.04e-05 mM and 1.05e-05 mM
- concentration of the single inhibitor achieving 30% inhibition of crystal growth ([1]; [001] direction): 3.86e-05 mM and 3.09e-05 mM and 3.85e-05 mM
- concentration of the single inhibitor achieving 70% inhibition of crystal growth ([1]; [001] direction): 0.0001322 mM and 0.0001041 mM and 0.0001312 mM
- IC50 ([1]; [001] direction): 0.0761 µM and 0.0609 µM and 0.0763 µM
- concentration of the single inhibitor achieving 10% inhibition of crystal growth ([1]; [021] direction): 1.17e-05 mM and 9.4e-06 mM and 1.16e-05 mM
- concentration of the single inhibitor achieving 30% inhibition of crystal growth ([1]; [021] direction): 3.98e-05 mM and 3.2e-05 mM and 3.99e-05 mM
- concentration of the single inhibitor achieving 70% inhibition of crystal growth ([1]; [021] direction): 0.0001369 mM and 0.0001095 mM and 0.0001358 mM
- IC50 ([1]; [021] direction): 0.0772 µM and 0.056 µM and 0.0771 µM
- concentration of the single inhibitor achieving 10% inhibition of crystal growth ([1]; [121] direction): 1.64e-05 mM and 1.31e-05 mM and 1.65e-05 mM
- concentration of the single inhibitor achieving 30% inhibition of crystal growth ([1]; [121] direction): 5.62e-05 mM and 4.49e-05 mM and 5.61e-05 mM
- concentration of the single inhibitor achieving 70% inhibition of crystal growth ([1]; [121] direction): 0.0001884 mM and 0.00015 mM and 0.0001879 mM
- IC50 ([1]; [121] direction): 0.11 µM and 0.0888 µM
- synergistic enhancement order in improving cell activity [2]: GaA>PcA>PGA>EA

Compound: O=C(O)c1cc(O)c(O)c(O)c1 [GaA, gallic acid]
- concentration of the single inhibitor achieving 10% inhibition of crystal growth ([1]; [001] direction): 0.0003716 mM and 0.0004677 mM and 0.0004678 mM
- concentration of the single inhibitor achieving 30% inhibition of crystal growth ([1]; [001] direction): 0.0015906 mM and 0.0012801 mM and 0.00159 mM
- concentration of the single inhibitor achieving 70% inhibition of crystal growth ([1]; [001] direction): 0.0053799 mM and 0.0043049 mM and 0.0053797 mM
- IC50 ([1]; [001] direction): 3.1 µM and 2.4 µM
- concentration of the single inhibitor achieving 10% inhibition of crystal growth ([1]; [021] direction): 0.0003743 mM and 0.0002994 mM and 0.0003744 mM
- concentration of the single inhibitor achieving 30% inhibition of crystal growth ([1]; [021] direction): 0.0012912 mM and 0.0010221 mM and 0.001291 mM
- concentration of the single inhibitor achieving 70% inhibition of crystal growth ([1]; [021] direction): 0.0043601 mM and 0.003488 mM and 0.00436 mM
- IC50 ([1]; [021] direction): 2.51 µM and 1.8 µM
- concentration of the single inhibitor achieving 10% inhibition of crystal growth ([1]; [121] direction): 0.0004959 mM and 0.0003967 mM
- concentration of the single inhibitor achieving 30% inhibition of crystal growth ([1]; [121] direction): 0.0016841 mM and 0.0013473 mM and 0.0016842 mM
- concentration of the single inhibitor achieving 70% inhibition of crystal growth ([1]; [121] direction): 0.0056887 mM and 0.004551 mM and 0.0056881 mM
- IC50 ([1]; [121] direction): 3.27 µM and 2.62 µM
- synergistic enhancement order in improving cell activity [2]: GaA>PcA>PGA>EA

Compound: O=C(O)CC(O)(C(=O)O)C(O)C(=O)O (stereo not drawn) [HCA, hydroxycitric acid]
- concentration of the single inhibitor achieving 10% inhibition of crystal growth ([1]; [001] direction): 0.0088 mM
- concentration of the single inhibitor achieving 30% inhibition of crystal growth ([1]; [001] direction): 0.0281 mM
- concentration of the single inhibitor achieving 70% inhibition of crystal growth ([1]; [001] direction): 0.1003 mM
- IC50 ([1]; [001] direction): 56.1 µM
- concentration of the single inhibitor achieving 10% inhibition of crystal growth ([1]; [021] direction): 0.0096 mM
- concentration of the single inhibitor achieving 30% inhibition of crystal growth ([1]; [021] direction): 0.0320 mM
- concentration of the single inhibitor achieving 70% inhibition of crystal growth ([1]; [021] direction): 0.1104 mM
- IC50 ([1]; [021] direction): 61 µM
- concentration of the single inhibitor achieving 10% inhibition of crystal growth ([1]; [121] direction): 0.0110 mM
- concentration of the single inhibitor achieving 30% inhibition of crystal growth ([1]; [121] direction): 0.0367 mM
- concentration of the single inhibitor achieving 70% inhibition of crystal growth ([1]; [121] direction): 0.1240 mM
- IC50 ([1]; [121] direction): 72 µM

Compound: O=C([O-])CC(O)(CC(=O)[O-])C(=O)[O-].[K+].[K+].[K+] [KCA, potassium citrate]
- concentration of the single inhibitor achieving 10% inhibition of crystal growth ([1]; [001] direction): 0.0106 mM
- concentration of the single inhibitor achieving 30% inhibition of crystal growth ([1]; [001] direction): 0.0369 mM
- concentration of the single inhibitor achieving 70% inhibition of crystal growth ([1]; [001] direction): 0.1253 mM
- IC50 ([1]; [001] direction): 70.9 µM
- concentration of the single inhibitor achieving 10% inhibition of crystal growth ([1]; [021] direction): 0.0123 mM
- concentration of the single inhibitor achieving 30% inhibition of crystal growth ([1]; [021] direction): 0.0401 mM
- concentration of the single inhibitor achieving 70% inhibition of crystal growth ([1]; [021] direction): 0.1369 mM
- IC50 ([1]; [021] direction): 79.4 µM
- concentration of the single inhibitor achieving 10% inhibition of crystal growth ([1]; [121] direction): 0.0135 mM
- concentration of the single inhibitor achieving 30% inhibition of crystal growth ([1]; [121] direction): 0.0451 mM
- concentration of the single inhibitor achieving 70% inhibition of crystal growth ([1]; [121] direction): 0.1547 mM
- IC50 ([1]; [121] direction): 88.1 µM
- effect compared with citric acid ([1]; inhibition of COM crystal growth): almost the same

Compound: Oc1cccc(O)c1O [PGA, pyrogallol]
- concentration of the single inhibitor achieving 10% inhibition of crystal growth ([1]; [001] direction): 0.0021 mM
- concentration of the single inhibitor achieving 30% inhibition of crystal growth ([1]; [001] direction): 0.0073 mM
- concentration of the single inhibitor achieving 70% inhibition of crystal growth ([1]; [001] direction): 0.0245 mM
- IC50 ([1]; [001] direction): 14.2 µM
- concentration of the single inhibitor achieving 10% inhibition of crystal growth ([1]; [021] direction): 0.0018 mM
- concentration of the single inhibitor achieving 30% inhibition of crystal growth ([1]; [021] direction): 0.0062 mM
- concentration of the single inhibitor achieving 70% inhibition of crystal growth ([1]; [021] direction): 0.0210 mM
- IC50 ([1]; [021] direction): 12.1 µM
- concentration of the single inhibitor achieving 10% inhibition of crystal growth ([1]; [121] direction): 0.0027 mM
- concentration of the single inhibitor achieving 30% inhibition of crystal growth ([1]; [121] direction): 0.0091 mM
- concentration of the single inhibitor achieving 70% inhibition of crystal growth ([1]; [121] direction): 0.0309 mM
- IC50 ([1]; [121] direction): 17.7 µM
- synergistic enhancement order in improving cell activity [2]: GaA>PcA>PGA>EA

Compound: O=C(O)c1ccc(O)c(O)c1 [PrA, protocatechuic acid]
- concentration of the single inhibitor achieving 10% inhibition of crystal growth ([1]; [001] direction): 0.0255 mM
- concentration of the single inhibitor achieving 30% inhibition of crystal growth ([1]; [001] direction): 0.0982 mM
- IC50 ([1]; [001] direction): 264 µM
- concentration of the single inhibitor achieving 10% inhibition of crystal growth ([1]; [021] direction): 0.0187 mM
- concentration of the single inhibitor achieving 30% inhibition of crystal growth ([1]; [021] direction): 0.0702 mM
- IC50 ([1]; [021] direction): 186 µM
- concentration of the single inhibitor achieving 10% inhibition of crystal growth ([1]; [121] direction): 0.0307 mM
- concentration of the single inhibitor achieving 30% inhibition of crystal growth ([1]; [121] direction): 0.1174 mM
- IC50 ([1]; [121] direction): 316 µM
- synergistic enhancement order in improving cell activity [2]: GaA>PcA>PGA>EA
